From ChEMBL document CHEMBL1201862, “PubChem BioAssay data set” (2004)
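1) Cells in 96-well plates. 2) Compound, 48 h, 5 concentrations. 3) Linear interpolation between surrounding doses. 4) Unreached endpoint = highest concentration. GI50 = concentration required for 50% inhibition of growth.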 Calls of active or inactive are those of the source. No stated cut-off is given here; in the data, active = GI50 up to about 1.1 µM and inactive = higher.

Tests used:
Test in all cases: NCI tumour cell line growth inhibition, 48 h
NCI/ADR-RES = system: NCI/ADR-RES
NCI-H23 = system: NCI-H23
A498 = system: A498
MDA-MB-231 = system: MDA-MB-231
HCC 2998 = system: HCC 2998
PC-3 = system: PC-3
MOLT-4 = system: MOLT-4
UACC-257 = system: UACC-257
M14 = system: M14
COLO 205 = system: COLO 205
SF-295 = system: SF-295
SW-620 = system: SW-620
OVCAR-3 = system: OVCAR-3
NCI-H460 = system: NCI-H460
SNB-19 = system: SNB-19
ACHN = system: ACHN
MCF7 = system: MCF7
DU-145 = system: DU-145
OVCAR-8 = system: OVCAR-8
HT-29 = system: HT-29

Measured: GI50

O=C1CCc2cc([N+](=O)[O-])ccc2O1
inactive: NCI/ADR-RES > 100 µM | NCI-H23 > 100 µM | A498 > 100 µM | MDA-MB-231 > 100 µM | HCC 2998 > 100 µM | PC-3 > 100 µM | MOLT-4 > 100 µM | UACC-257 > 100 µM | M14 > 100 µM | COLO 205 > 100 µM | SF-295 > 100 µM | SW-620 > 100 µM | OVCAR-3 > 100 µM | NCI-H460 > 100 µM | SNB-19 > 100 µM | ACHN > 100 µM | MCF7 > 100 µM | DU-145 > 100 µM | OVCAR-8 > 100 µM | HT-29 > 100 µM

O=[N+]([O-])c1ccc(C2ON=C(c3ccccc3)N2C23CC4CC(CC(C4)C2)C3)cc1 (stereo not given)
inactive: NCI/ADR-RES > 10 µM | NCI-H23 > 10 µM | A498 > 10 µM | MDA-MB-231 > 10 µM | HCC 2998 > 10 µM | PC-3 > 10 µM | MOLT-4 > 10 µM | UACC-257 > 10 µM | M14 > 10 µM | COLO 205 > 10 µM | SF-295 > 10 µM | SW-620 > 10 µM | OVCAR-3 > 10 µM | NCI-H460 > 10 µM | SNB-19 > 10 µM | ACHN > 10 µM | MCF7 > 10 µM | DU-145 > 10 µM | OVCAR-8 > 10 µM | HT-29 > 10 µM

OCC1CCCCN1Cc1nc2cc(Cl)ccc2[nH]1 (stereo not given)
inactive: NCI/ADR-RES > 100 µM | NCI-H23 > 100 µM | A498 > 100 µM | MDA-MB-231 > 100 µM | HCC 2998 > 100 µM | PC-3 55.2 µM | MOLT-4 > 100 µM | UACC-257 > 100 µM | M14 > 100 µM | COLO 205 > 100 µM | SF-295 > 100 µM | SW-620 > 100 µM | OVCAR-3 > 100 µM | NCI-H460 > 100 µM | SNB-19 > 100 µM | ACHN > 100 µM | MCF7 > 100 µM | DU-145 > 100 µM | OVCAR-8 > 100 µM | HT-29 56.1 µM

CCCCCCCCCCc1c2nc(c(CCCCCCCCCC)c3ccc([nH]3)c(CCCCCCCCCC)c3nc(c(CCCCCCCCCC)c4ccc1[nH]4)C=C3)C=C2
inactive: NCI/ADR-RES > 100 µM | NCI-H23 > 100 µM | A498 > 100 µM | MDA-MB-231 > 100 µM | HCC 2998 > 100 µM | PC-3 > 100 µM | MOLT-4 > 100 µM | UACC-257 > 100 µM | M14 > 100 µM | COLO 205 > 100 µM | SF-295 > 100 µM | SW-620 > 100 µM | OVCAR-3 > 100 µM | NCI-H460 > 100 µM | SNB-19 > 100 µM | ACHN > 100 µM | MCF7 > 100 µM | DU-145 > 100 µM | OVCAR-8 > 100 µM | HT-29 > 100 µM

COC(=O)c1cc(=O)n(-c2ccc3nn(C)nc3c2)cc1C(=O)OC
inactive: NCI/ADR-RES > 100 µM | NCI-H23 > 100 µM | A498 > 100 µM | MDA-MB-231 > 100 µM | HCC 2998 > 100 µM | PC-3 > 100 µM | MOLT-4 > 100 µM | UACC-257 > 100 µM | M14 > 100 µM | COLO 205 > 100 µM | SF-295 > 100 µM | SW-620 > 100 µM | OVCAR-3 > 100 µM | NCI-H460 > 100 µM | SNB-19 > 100 µM | ACHN > 100 µM | MCF7 > 100 µM | DU-145 > 100 µM | OVCAR-8 > 100 µM | HT-29 > 100 µM

O=Cc1c(-c2ccccc2)nc2ccccc2c1O
inactive: NCI/ADR-RES 52.1 µM | NCI-H23 75.7 µM | A498 81.8 µM | MDA-MB-231 64.6 µM | HCC 2998 58.5 µM | PC-3 36.5 µM | MOLT-4 55.7 µM | UACC-257 72.8 µM | M14 68.2 µM | COLO 205 26.7 µM | SF-295 97.9 µM | SW-620 50.6 µM | OVCAR-3 49.8 µM | NCI-H460 48.2 µM | SNB-19 > 100 µM | ACHN > 100 µM | MCF7 39.3 µM | DU-145 > 100 µM | OVCAR-8 97.5 µM | HT-29 39.9 µM
